Results published in US20090018197A1, “METHODS FOR TREATING STATUS E[…] RELATED CONDITIONS” (priority 2003, published 2009).

How the values were obtained:
Format in all cases: in vivo, rat
[1] = tested on: self-sustaining status epilepticus (SSSE); test: Experiment 1a: SSSE after electrical stimulation of the perforant path (60 min stimulation); settings: male Wistar rats, i.v. 10 min after end of 60 min perforant path stimulation; SPM 927 50 mg/kg, PHT 50 mg/kg, DZP 10 mg/kg; vs control
Method: (§1) Animals: The experiments were performed on male Wistar rats, 280-300 g (Simonsen Labs, Calif.). Animals were kept at a constant room temperature with 12 hours artificial dark-light cycle with free access to standard diet and tap water.
(§2) Surgery: Under ketamine (60 mg/kg)/xylazine (15 mg/kg) anesthesia, animals were implanted with a bipolar stimulating electrode into the angular bundle of the perforant path (4.5 mm to left lambda, 1 mm anterior to lambdoid fissure) and a bipolar recording electrode into the granule cell layer of the ipsilateral dentate gyrus (3.5 mm anterior to lambda, 2.2 mm left to sagittal fissure). Depth of both electrodes was optimized by monitoring the amplitude and waveform of the population spike evoked from the dentate gyrus by stimuli delivered through the perforant path (single square wave monophasic stimuli, 20 V, 0.1 ms delivered every 10 s).
(§3) Induction of self-sustaining status epilepticus (SSSE): Seven days after surgery, animals were connected to a Cardionics 16 channel preamplifier, which was connected to the IBM computer. After 5 minutes of baseline EEG recording, animals were stimulated in the awake state for 60 minutes (Experiment 1a) or 30 minutes (Experiments 1b and 1c) with 10 s 20 Hz trains (1 ms square wave, 20 V) delivered every minute, together with 2 Hz continuous stimulation with the same parameters.
(§4) EEG monitoring and analysis: EEG from the dentate gyrus was monitored and recorded by means of commercial software (Monitor 8.1 from Stellate Systems). The software was configured for automatic detection and saving of spikes and seizures. Monitoring was performed for 24 hrs. EEG was analyzed off line by means of the same software. Spike distribution was presented as number of spikes per 10 min epoch, and the cumulated duration of seizures for 24 hrs of monitoring were calculated. Statistical analysis was performed by means of T-test. A p value less than 0.05 was considered statistically significant.
(§5) Drug administration: SPM 927 (50 mg/kg, 5 animals), phenyloin (PHT) (50 mg/kg), fosphenyloin (F-PTH, Parke-Davis, 50 mg/kg of phenyloin equivalent, 5 animals), diazepam (DZP) (10 mg/kg) or vehicle (VEH, 10% DMSO, 6 animals) were given i.v. 10 min after the end of perforant path stimulation in a volume of 1 ml/kg.

[2] = tested on: self-sustaining status epilepticus (SSSE); test: Experiment 1b: SSSE after electrical stimulation of the perforant path (30 min stimulation), SPM 927 vs fosphenyloin; settings: male Wistar rats, 50 mg/kg i.v. 10 min after end of 30 min stimulation; for spike frequency (number of spikes/10 min): vs control
Method: as §1, §2, §3, §4, §5

[3] = tested on: hippocampal damage following SSSE; test: Experiment 1c: hippocampal damage following SSSE (damaged neuron score); settings: for hippocampal damage score, CA1 / hippocampal damage score, CA3 / hippocampal damage score, Hilus / hippocampal damage score, Subiculum: scale 0-5, brains collected 72 hours after SSSE
Method: as §1, §2, §3, §5
Collection of tissue: Brains were collected 72 hours after SSSE. This was accomplished by transcardial perfusion with first heparinized normal saline for about 2 minutes to largely clear the vasculature of blood and second by phosphate buffered formaldehyde (10% formaldehyde at pH 7.4) for 10 to 15 min (approximately 50 to 60 ml). Carcasses were placed in the refrigerator overnight to further firm the tissue and the brains were dissected from the heads the following day.
Preparation of brain sections for light microscopy: after Removal, the Brains were passed through a graded series of alcohol and clearing agent (Hemo-De, Fisher) and then embedded in paraffin. Serial 8 micron-thick coronal sections were cut from the embedded tissue at approximately 100 micron intervals and float mounted onto microscope slides. The sections were stained with hematoxylin and eosin and coverslipped.
Selection of sections for counting: Selection of sections for counting was controlled by the stereotaxic atlas for rats (Paxinos and Watson). The 3 sections selected for quantitation contained dorsal hippocampus and were 1.6±0.05 mm posterior to bregma.
Location of counting fields—damage to the pyramidal cell layer was assessed by counting damaged neurons in the subiculum, CA1, CA3, CA3c and the hilus in the dorsal hippocampus. The neurons were assessed individually from the beginning of the subiculum to the end of the CA3c region using an Olympus Provis Ax 70 microscope at a magnification of 40×. The CA3-CA3c transition was defined by a line connecting the extremeties of the blades of the dentate gyrus. The hilus was defined as the space located between the blades of the dentate gyrus, excluding the line of CA3c pyramids.
Criteria for differentiation of damaged versus non-damaged neurons—neurons were counted only if the majority of the nucleus was present in the section. Damaged neurons were counted if they were distinctly eosinophilic or distinctly pyknotic or both. All other cells with most of the nucleus present in the section (and counting field) were counted as not damaged. Each brain was assessed on left side and right side individually and also combined. The counting fields were individually divided into subiculum, CA1, CA3, CA3c and hilus. […]

[4] = tested on: generalized tonic-clonic seizures (GTCS) in chemically induced SSSE; test: Experiment 2: chemically induced SSSE (cobalt/homocysteine thiolactone); settings: for mean # GTCS: Sprague-Dawley rats
Method: Male Sprague-Dawley rats were prepared surgically with cobalt powder on the left frontal cortical surface.
Recording and stimulation protocol: Four epidural recording electrodes were arranged in a square grid (5 mm) over the cobalt lesion. EEG was monitored daily beginning 4-5 days following surgery. Status epilepticus was induced by i.p. injection of 5.5 mmol/kg homocysteine thiolactone whenever focal motor behaviour and EEG seizures were observed.
Drug administration: SPM 927 was administered (10-100 mg/kg) immediately following the second generalized tonic-clonic seizure (GTCS) occurring after homocysteine thiolactone injection.

[5] = 10 mg/kg, 30 min following treatment
[6] = 20 mg/kg, 30 min following treatment
[7] = 40 mg/kg, 30 min following treatment
[8] = 80 mg/kg, 30 min following treatment

CN1C(=O)CN=C(c2ccccc2)c2cc(Cl)ccc21 [DZP, diazepam]
cumulative seizure duration over the 24 h period [1]: potently and significantly reduced | time to the last seizure [1]: potently and significantly reduced

O=C1NC(c2ccccc2)(c2ccccc2)C(=O)N1COP(=O)(O)O [Fosphenyloin, fosphenyloin, reference compound]
time until seizures stopped after injection [2]: ≤ 15 min | spike frequency (number of spikes/10 min) [2]: significantly lower than in control animals but significantly higher than in SPM 927 treated rats

O=C1NC(=O)C(c2ccccc2)(c2ccccc2)N1 [PHT, phenyloin]
cumulative seizure duration over the 24 h period [1]: potently and significantly reduced | time to the last seizure [1]: potently and significantly reduced

COC[C@@H](NC(C)=O)C(=O)NCc1ccccc1 [SPM 927, (R)-2-acetamido-N-benzyl-3-methoxypropionamide]
cumulative seizure duration over the 24 h period [1]: potently and significantly reduced | time to the last seizure [1]: potently and significantly reduced | seizure recurrence over the next 24 hrs [2]: did not recur | time during which a few single spikes were recorded [2]: about 12 hrs | time until seizures stopped after injection [2]: ≤ 15 min | spike frequency (number of spikes/10 min) [2]: significantly decreased | hippocampal damage score, CA1 ([3]; Contralateral): 1.2 ± 0.4 | hippocampal damage score, CA3 ([3]; Contralateral): 1.0 ± 0.0 | hippocampal damage score, Hilus ([3]; Contralateral): 1.4 ± 0.5 | hippocampal damage score, Subiculum ([3]; Contralateral): 1.0 ± 0.0 | hippocampal damage score, CA1 ([3]; Ipsilateral): 1.0 ± 0.0 | hippocampal damage score, CA3 ([3]; Ipsilateral): 1.0 ± 0.0 | hippocampal damage score, Hilus ([3]; Ipsilateral): 1.2 ± 0.4 | hippocampal damage score, Subiculum ([3]; Ipsilateral): 1.0 ± 0.0 | injured neurons in any hippocampal field ([3]; treated rats following SSSE): only an occasional injured neuron | interval to 1st GTCS ([4]; 10 mg/kg): 6.6 min | # rats with GTCS [4, 5]: 8/8 | mean # GTCS [4, 5]: 4.8 | interval to 1st GTCS ([4]; 20 mg/kg): 8.9 min | # rats with GTCS [4, 6]: 7/8 | mean # GTCS [4, 6]: 2.7 | interval to 1st GTCS ([4]; 40 mg/kg): 5.6 min | # rats with GTCS [4, 7]: 4/8 | mean # GTCS [4, 7]: 3.8 | interval to 1st GTCS ([4]; 80 mg/kg): 14.0 min | # rats with GTCS [4, 8]: 3/8 | mean # GTCS [4, 8]: 2.7 | # rats with GTCS ([4]; 100 mg/kg, 30 min following treatment): 0/8 | number of rats experiencing GTCS ([4]; 10-100 mg/kg, 30 min following treatment): reduced in a dose-dependent fashion
